Data on 24 compounds can be found in US7589087B2 (Janssen Pharmaceutica, N.V., priority 2006, dated 2009).

The target of this assay is T1, human histamine H4 receptor (Homo sapiens, UniProt Q9H3N8).
T1 construct: expressed in transfected cells; host or cells: SK-N-MC cells or COS7 cells, transiently transfected; membranes prepared
Briefly: Binding Assay on Recombinant Human Histamine H4 Receptor (3H-histamine competition, membranes of transfected SK-N-MC or COS7 cells). Also: ligand 5 nM. The protocol: SK-N-MC cells or COS7 cells were transiently transfected with pH4R and grown in 150 cm^2 tissue culture dishes. Cells were washed with saline solution, scraped with a cell scraper and collected by centrifugation (1000 rpm, 5 min). Cell membranes were prepared by homogenization of the cell pellet in 20 mM Tris-HCl with a polytron tissue homogenizer for 10 sec at high speed. Homogenate was centrifuged at 1000 rpm for 5 min at 4° C. The supernatant was then collected and centrifuged at 20,000×g for 25 min at 4° C. The final pellet was resuspended in 50 mM Tris-HCl. […] Incubation occurred at room temperature for 45 min. Membranes were harvested by rapid filtration over Whatman GF/C filters and washed 4 times with ice-cold 50 mM Tris HCl. Filters were then dried, mixed with scintillant and counted for radioactivity.

T1 sequence (Q9H3N8 whole entry): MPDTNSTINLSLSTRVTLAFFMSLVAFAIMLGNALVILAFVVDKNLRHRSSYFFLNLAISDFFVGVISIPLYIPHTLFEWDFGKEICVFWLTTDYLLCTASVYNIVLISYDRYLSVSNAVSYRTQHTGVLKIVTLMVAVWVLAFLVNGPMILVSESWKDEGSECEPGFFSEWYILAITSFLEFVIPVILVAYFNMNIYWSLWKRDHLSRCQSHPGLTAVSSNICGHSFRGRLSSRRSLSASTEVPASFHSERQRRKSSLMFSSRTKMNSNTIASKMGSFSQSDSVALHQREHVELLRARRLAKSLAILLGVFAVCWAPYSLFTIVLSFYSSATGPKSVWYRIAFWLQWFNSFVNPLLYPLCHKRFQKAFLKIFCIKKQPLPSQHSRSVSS

A word on the Ki: it is the dissociation constant of the complex between target and ligand, obtained from inhibition or displacement. With `Cc1cccc2[nH]c(-c3ccnc(NCCCCC4CCN(C)CC4)c3)nc12` [Example 15, [4-(4-Methyl-1H-benzoimidazol-2-yl)-pyridin-2-yl]-[4-(1-methyl-piperidin-4-yl)-butyl]-amine], the Ki turned out to be 1 nM.

`Cc1c(F)ccc2[nH]c(-c3ccnc(NCCCCC4CCN(C)CC4)c3)nc12` [Example 16, [4-(5-Fluoro-4-methyl-1H-benzoimidzol-2-yl)-pyridin-2-yl]-[4-(1-methyl-piperidin-4-yl)-butyl]-amine]: the Ki turned out to be 2 nM.

Take `Cc1cc(Cl)cc2[nH]c(-c3ccnc(NCCCCC4CCN(C)CC4)c3)nc12` [Example 17, [4-(6-Chloro-4-methyl-1H-benzoimidazol-2-yl)-pyridin-2-yl]-[4-(1-methyl-piperidin-4-yl)-butyl]-amine]: the Ki was determined as 8 nM.

`Cc1cc(C)c2nc(-c3ccnc(NCCCCC4CCN(C)CC4)c3)[nH]c2c1` [Example 18, [4-(4,6-Dimethyl-1H-benzoimidazol-2-yl)-pyridin-2-yl]-[4-(1-methyl-piperidin-4-yl)-butyl]-amine]: the Ki is 2 nM.

With `Cc1c(F)ccc2[nH]c(-c3ccnc(NCCCCN4CCCN(C)CC4)c3)nc12` [Example 19, [4-(5-Fluoro-4-methyl-1H-benzoimidazol-2-yl)-pyridin-2-yl]-[4-(4-methyl-[1,4]diazepan-1-yl)-butyl]-amine], the inhibitory constant (Ki) turned out to be 5 nM.

Regarding `Cc1c(F)ccc2[nH]c(-c3ccnc(NC(=O)CCCC4CCN(C)CC4)c3)nc12` [Example 20, N-[4-(5-Fluoro-4-methyl-1H-benzoimidazol-2-yl)-pyridin-2-yl]-4-(1-methyl-piperidin-4-yl)-butyramide], the inhibition constant Ki was 250 nM.

Regarding `Cc1cc(C)c2nc(-c3ccnc(NC(=O)CCCC4CCN(C)CC4)c3)[nH]c2c1` [Example 21, N-[4-(4,6-Dimethyl-1H-benzoimidazol-2-yl)-pyridin-2-yl]-4-(1-methyl-piperidin-4-yl)-butyramide], the Ki came out at 290 nM.

As for `COC(=O)c1ccc2[nH]c(-c3ccc(N(C)CCCC4CCN(C)CC4)nc3)nc2c1` [Example 22, 2-(6-{Methyl-[3-(1-methyl-piperidin-4-yl)-propyl]-amino}-pyridin-3-yl)-1H-benzoimidazole-5-carboxylic acid methyl ester], the Ki is 420 nM.

For `Cc1cccc2[nH]c(-c3ccc(NCCCC4CCN(C)CC4)nc3)nc12` [Example 23, [5-(4-Methyl-1H-benzoimidazol-2-yl)-pyridin-2-yl]-[3-(1-methyl-piperidin-4-yl)-propyl]-amine], the Ki came out at 240 nM.

Take `Cc1cc(C)c2nc(-c3ccc(NCCCC4CCN(C)CC4)nc3)[nH]c2c1` [Example 24, [5-(4,6-Dimethyl-1H-benzoimidazol-2-yl)-pyridin-2-yl]-[3-(1-methyl-piperidin-4-yl)-propyl]-amine]: the inhibition constant (Ki) is 23 nM.

Regarding `Cc1ccc2[nH]c(-c3ccc(NCCCC4CCN(C)CC4)nc3)nc2c1C` [Example 25, [5-(4,5-Dimethyl-1H-benzoimidazol-2-yl)-pyridin-2-yl]-[3-(1-methyl-piperidin-4-yl)-propyl]-amine], the Ki came to 58 nM.

`CN1CCC(CCCNc2ccc(-c3nc4cc(Cl)c(F)cc4[nH]3)cn2)CC1` [Example 26, [5-(5-Chloro-6-fluoro-1H-benzoimidazol-2-yl)-pyridin-2-yl]-[3-(1-methyl-piperidin-4-yl)-propyl]-amine]: the Ki was determined as 13 nM.

Take `Cc1ccc2[nH]c(-c3ccc(N(C)CCCC4CCN(C)CC4)nc3)nc2c1C` [Example 27, [5-(4,5-Dimethyl-1H-benzoimidazol-2-yl)-pyridin-2-yl]-methyl-[3-(1-methyl-piperidin-4-yl)-propyl]-amine]: the Ki was 72 nM.

With `CN1CCC(CCCN(C)c2ccc(-c3nc4c(F)c(F)ccc4[nH]3)cn2)CC1` [Example 28, [5-(4,5-Difluoro-1H-benzoimidazol-2-yl)-pyridin-2-yl]-methyl-[3-(1-methyl-piperidin-4-yl)-propyl]-amine], the Ki was determined as 37 nM.

With `CN1CCC(CCCNc2ccc(-c3nc4c(F)c(F)ccc4[nH]3)cn2)CC1` [Example 29, [5-(4,5-Difluoro-1H-benzoimidazol-2-yl)-pyridin-2-yl]-[3-(1-methyl-piperidin-4-yl)-propyl]-amine], the inhibition constant Ki was 89 nM.

For `CN1CCC(CCCNc2ccc(-c3nc4cc(C(=O)c5ccccc5)ccc4[nH]3)cn2)CC1` [Example 30, (2-{6-[3-(1-Methyl-piperidin-4-yl)-propylamino]-pyridin-3-yl}-1H-benzoimidazol-5-yl)-phenyl-methanone], the inhibition constant Ki came out at 520 nM.

Take `CN1CCC(CCCNc2ccc(-c3nc4c(Cl)cccc4[nH]3)cn2)CC1` [Example 31, [5-(4-Chloro-1H-benzoimidazol-2-yl)-pyridin-2-yl]-[3-(1-methyl-piperidin-4-yl)-propyl]-amine]: the Ki stood at 2670 nM.

Take `CN1CCC(CCCNc2ccc(-c3nc4cc(F)ccc4[nH]3)cn2)CC1` [Example 32, [5-(5-Fluoro-1H-benzoimidazol-2-yl)-pyridin-2-yl]-[3-(1-methyl-piperidin-4-yl)-propyl]-amine]: the Ki came out at 41 nM.

As to `Cc1cc(C)c2nc(-c3ccc(NCCCN4CCN(C)CC4)nc3)[nH]c2c1` [Example 33, [5-(4,6-Dimethyl-1H-benzoimidazol-2-yl)-pyridin-2-yl]-[3-(4-methyl-piperazin-1-yl)-propyl]-amine], the inhibitory constant (Ki) was determined as 680 nM.

As to `CC(C)N(CCCN1CCN(C)CC1)c1ccc(-c2nc3cc(Cl)ccc3[nH]2)cn1` [Example 34, [5-(5-Chloro-1H-benzoimidazol-2-yl)-pyridin-2-yl]-isopropyl-[3-(4-methyl-piperazin-1-yl)-propyl]-amine], the Ki was found to be 570 nM.

As to `Cc1ccc2[nH]c(-c3ccnc(NC(=O)CCCC4CCN(C)CC4)c3)nc2c1C` [Example 35, N-[4-(4,5-Dimethyl-1H-benzoimidazol-2-yl)-pyridin-2-yl]-4-(1-methyl-piperidin-4-yl)-butyramide], the Ki turned out to be 470 nM.

Regarding `CN1CCC(CCCC(=O)Nc2cc(-c3nc4cc(Cl)ccc4[nH]3)ccn2)CC1` [Example 36, N-[4-(5-Chloro-1H-benzoimidazol-2-yl)-pyridin-2-yl]-4-(1-methyl-piperidin-4-yl)-butyramide], the Ki was 660 nM.

`Cc1ccc2[nH]c(-c3ccc(N(CCCC4CCN(C)CC4)C(C)C)nc3)nc2c1C` [Example 37, [5-(4,5-Dimethyl-1H-benzoimidazol-2-yl)-pyridin-2-yl]-isopropyl-[3-(1-methyl-piperidin-4-yl)-propyl]-amine]: the inhibitory constant (Ki) stood at 3470 nM.

As for `Cc1cccc2[nH]c(-c3ccnc(NC(=O)CCCC4CCN(C)CC4)c3)nc12` [Example 38, N-[4-(4-Methyl-1H-benzoimidazol-2-yl)-pyridin-2-yl]-4-(1-methyl-piperidin-4-yl)-butyramide], the Ki was found to be 3330 nM.
